Experiments:
[1] = molecular target: TNFα (Homo sapiens, UniProt P01375); assay: Immunoassay binding test, TNFa; details: compounds 100 to 0.78 μM; TNFα 10 ng/ml, receptor 100 ng/ml; read-out: BINDING TNF IC50
Experimental: Microtiter plates (96 wells) are covered with 100 μl of receptor per well, and incubated overnight at 4° C. The following day, after 2 washes in PBS/Tween20, the plates are saturated with 150 μl of PBS/BSA 2% per well, for 2 h at 37° C. […] The cytokine is diluted in series (six concentrations) in a final volume of 120 μl per well. […] The different mixtures are incubated for 2 h at 37° C. 100 μl of each mixture are then transferred to the microtiter plate, respecting the plate plan previously defined and incubated overnight at 4° C. After three washes, 100 μl of biotinylated anti-cytokine secondary antibody are added to each well, then incubated for 2 h at 37° C. After three washes, 100 μl of Avidin-HRP (1/500th dilution) are added and incubated for 30 minutes at 37° C. […] The plates are then read with a spectrophotometer at 450 nm, measuring the optical density for each well.
(§1) This binding test is carried out with different cytokines: TNFa, IL-4, IL-6 and IL-13. For IL-6, the incubation of molecules with the cytokine also requires the presence of IL-6Ra at a final concentration of 200 ng/ml.
(§2) The final concentrations used for each of the cytokines are presented below: […]

[2] = molecular target: TNFa/TNFRI interaction (Homo sapiens, UniProt P01375); assay: TNFa/TNFRI interaction displacement test; format: binding; details: for Displacement (%): compounds at 50 μM, human TNFRI 100 ng/ml; for Displacement EC50 TNFa in presence of compound: Difference: Compound EC50 minus SPD304 EC50;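 on Displacement EC50 TNFa in presence of compound: Difference: SPD304 reference at 20 µM final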
Chain of TNFa/TNFRI interaction (P01375 77-233 limits assumed): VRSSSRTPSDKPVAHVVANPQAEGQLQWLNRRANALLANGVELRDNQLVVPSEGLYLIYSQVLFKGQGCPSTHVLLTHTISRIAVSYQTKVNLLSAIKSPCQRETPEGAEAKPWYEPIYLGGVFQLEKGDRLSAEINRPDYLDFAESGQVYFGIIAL
Experimental: Microtiter plates (96 wells) are covered with 100 μl per well of human TNFRI, at a concentration of 100 ng/ml, then incubated overnight at 4° C. The following day, after two washes in PBS/Tween20, the plates are saturated with 150 μl of PBS/BSA 2% for 2 h at 37° C.
100 μl of each mixture are then transferred to the microtiter plate, respecting the established plate plan and incubated overnight at 4° C.
After three washes, 100 μl of biotinylated anti-cytokine secondary antibody are added to each well and incubated for 2 h at 37° C. After three washes, 100 Avl Avidin-HRP (dilution 1/500th) are added and incubated for 30 minutes at 37° C. […] The plates are then read with a spectrophotometer at 450 nm, measuring the optical density (OD) for each well.

[3] = molecular target: T1, IL-4 (Homo sapiens, UniProt P05112); assay: Immunoassay binding test, IL-4; details: for IC50: IL-4 400 ng/ml, receptor 100 ng/ml, read-out: BINDING IL4 IC50
T1 sequence (P05112 25-153): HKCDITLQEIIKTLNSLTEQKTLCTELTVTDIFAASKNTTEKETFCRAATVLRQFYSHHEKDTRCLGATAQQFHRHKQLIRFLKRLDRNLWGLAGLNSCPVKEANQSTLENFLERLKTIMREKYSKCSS
Experimental: (§3) Microtiter plates (96 wells) are covered with 100 μl of receptor per well, and incubated overnight at 4° C. The following day, after 2 washes in PBS/Tween20, the plates are saturated with 150 μl of PBS/BSA 2% per well, for 2 h at 37° C. Synthetic compounds are diluted in series (final concentrations: 100 to 0.78 μM) then a fixed amount of cytokine in PBS/BSA 1% is added to the compounds, in a final volume of 120 μl per well. […] The cytokine is diluted in series (six concentrations) in a final volume of 120 μl per well. The cytokine is used in the absence of small molecule as well as the range of SPD304 as positive controls and the absence of cytokine and synthetic molecule as negative control. The different mixtures are incubated for 2 h at 37° C. 100 μl of each mixture are then transferred to the microtiter plate, respecting the plate plan previously defined and incubated overnight at 4° C. After three washes, 100 μl of biotinylated anti-cytokine secondary antibody are added to each well, then incubated for 2 h at 37° C. After three washes, 100 μl of Avidin-HRP (1/500th dilution) are added and incubated for 30 minutes at 37° C. […] The plates are then read with a spectrophotometer at 450 nm, measuring the optical density for each well.
as §1, §2

[4] = molecular target: IL-13 (Homo sapiens, UniProt P35225); assay: Immunoassay binding test, IL-13; details: for IC50: IL-13 400 ng/ml, receptor 100 ng/ml, read-out: BINDING IL13 IC50
Chain of IL-13 (P35225 25-146, species assumed): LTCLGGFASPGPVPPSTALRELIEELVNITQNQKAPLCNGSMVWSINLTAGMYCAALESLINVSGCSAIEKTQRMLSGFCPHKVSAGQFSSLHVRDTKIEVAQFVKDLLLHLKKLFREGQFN
Experimental: Microtiter plates (96 wells) are covered with 100 μl of receptor per well, and incubated overnight at 4° C. The following day, after 2 washes in PBS/Tween20, the plates are saturated with 150 μl of PBS/BSA 2% per well, for 2 h at 37° C. Synthetic compounds are diluted in series (final concentrations: 100 to 0.78 μM) then a fixed amount of cytokine in PBS/BSA 1% is added to the compounds, in a final volume of 120 μl per well. […] The cytokine is diluted in series (six concentrations) in a final volume of 120 μl per well. […] The different mixtures are incubated for 2 h at 37° C. 100 μl of each mixture are then transferred to the microtiter plate, respecting the plate plan previously defined and incubated overnight at 4° C. After three washes, 100 μl of biotinylated anti-cytokine secondary antibody are added to each well, then incubated for 2 h at 37° C. After three washes, 100 μl of Avidin-HRP (1/500th dilution) are added and incubated for 30 minutes at 37° C. […] The plates are then read with a spectrophotometer at 450 nm, measuring the optical density for each well.
as §1, §2

[5] = molecular target: IL-6 (Homo sapiens, UniProt P05231); assay: Immunoassay binding test, IL-6 (gp130 receptor, IL-6Ra present); details: IL-6Ra 200 ng/ml
Chain of IL-6 (P05231 30-212, species assumed): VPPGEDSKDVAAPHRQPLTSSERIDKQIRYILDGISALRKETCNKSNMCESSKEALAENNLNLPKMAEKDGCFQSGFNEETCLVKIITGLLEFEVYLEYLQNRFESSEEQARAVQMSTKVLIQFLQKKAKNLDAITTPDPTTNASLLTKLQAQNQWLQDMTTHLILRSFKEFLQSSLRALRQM
Experimental: as §3, §1, §2

Chain of TNFα (P01375 77-233 limits assumed, species assumed): as the sequence (P01375 77-233 limits assumed) above

| SMILES | IC50 [1] [µM] | Displacement (%) [2] [%] | BINDING IL4 % Neutra at 100 μM [3] [%] | IC50 [3] [µM] | BINDING IL13 % Neutra at 100 μM [4] [%] | IC50 [4] [µM] | BINDING IL6 % Neutra at 100 μM [5] [%] | Displacement EC50 TNFa in presence of compound: Difference [2] |
| --- | --- | --- | --- | --- | --- | --- | --- | --- |
| CN(C)CCCCCN(Cc1cccc(F)n1)Cc1cn(S(=O)(=O)c2ccccc2)c2ccccc12 [Compound 90] | 15.5 | 137 | 94.0 | 5.2 | 69.7 | > 50 | 0 |  |
| O=S(=O)(c1ccccc1)n1cc(CN(Cc2cccc(F)n2)CC2CCCN(C3CCCCC3)C2)c2ccccc21 (stereo not drawn) [Compound 41] | 7 | 152 | 94.7 | 4.8 | 87.6 | 9.2 | 0 | 4.7 ng/mL |
| O=S(=O)(c1ccccc1)n1cc(CN(Cc2ccccn2)CC2CCCN(C3CCCCC3)C2)c2ccccc21 (stereo not drawn) [Compound 1] | 11.9 | 178 | 97.5 | 4.1 | 94.6 | 23.5 | 5.5 | 9.1 ng/mL |
| O=S(=O)(c1ccccc1)n1cc(CN(CCCCCNC2CCCCC2)Cc2cccc(F)n2)c2ccccc21 [Compound 48, N1-cyclohexyl-N5-((6-fluoropyridin-2-yl)methyl)-N5-((1-(phenylsulfonyl)-1H-indol-3-yl)methyl)pentane-1,5-diamine] | 13.7 | 91 | 91.2 | 7 | 89.9 | 17.8 | 1 |  |
| CN(CCCCN(Cc1ccn(S(=O)(=O)c2ccccc2)c1)Cc1cccnc1F)C1CCCCC1 [Compound 91, N1-cyclohexyl-N4-((2-fluoropyridin-3-yl)methyl)-N1-methyl-N4-((1-(phenylsulfonyl)-1H-pyrrol-3-yl)methyl)butane-1,4-diamine] | 27.5 | 87 | 87.5 | 16.4 | 35.8 | > 50 | 0 |  |
| O=S(=O)(c1ccccc1)n1cc(CN(CCCCNC2CCCCCC2)Cc2cccnc2F)c2ccccc21 [Compound 73, N′-cycloheptyl-N^4-((2-fluoropyridin-3-yl)methyl)-N^4-((1-(phenylsulfonyl)-1H-indol-3-yl)methyl)butane-1,4-diamine] | 8.4 | 161 | 91.0 | 6 | 87.2 | 14.9 | 0 |  |
| FC(F)(F)c1cccc(-n2cc(CN(CCNC3CCCCC3)Cc3ccncc3)c3ccccc32)c1 [Compound 29] | 18.3 | 103 | 96.4 | 6.2 | 86.8 | > 50 | 17.3 |  |
| CN(CCCCN(Cc1ccncc1)Cc1cn(S(=O)(=O)c2ccccc2)c2ccccc12)C1CCCCC1 [Compound 18] | 2.2 | 145 | 98.4 | 5.3 | 94.2 | 80.9 | 16.3 | Difference = 6 ng/ml |
| CN(CCOCCN(Cc1cccnc1F)Cc1cn(S(=O)(=O)c2ccccc2)c2ccccc12)C1CCCC1 [Compound 105, N-(2-(2-(((2-fluoropyridin-3-yl)methyl)((1-(phenylsulfonyl)-1H-indol-3-yl)methyl)amino)ethoxy)ethyl)-N-methylcyclopentanamine] | 7.5 | 162 | 91.2 | 11.5 | 74.3 | > 50 | 0 |  |
| CN(CCN(Cc1ccncc1)Cc1cn(-c2cccc(C(F)(F)F)c2)c2ccccc12)C1CCCCC1 [Compound 31] | 13.4 | 120 | 96 | 5.7 | 81 | > 50 | 1.7 |  |
| O=C(NCCCCN(Cc1cccnc1F)Cc1cn(S(=O)(=O)c2ccccc2)c2ccccc12)N1CCOCC1 [Compound 84] | 21.2 | 111 | 0 |  | 0 |  | 3 |  |
| O=S(=O)(NCCCCN(Cc1cccnc1F)Cc1cn(S(=O)(=O)c2ccccc2)c2ccccc12)N1CCCCCC1 [Compound 81] | > 50 | 0 | 39.3 | > 50 | 0 |  | 1 |  |
| CCn1cc(CN(CCCCN(C)C2CCCCC2)Cc2cccnc2F)c2ccccc21 [Compound 96] | > 50 | 26 | 74.5 | 62.3 | 0 |  | 1 |  |
| CN(CCCCCN(Cc1ccc(F)nc1)Cc1cn(S(=O)(=O)c2ccccc2)c2ccccc12)C1CCCCC1 [Compound 58] | 6.7 | 126 | 92.5 | 2.1 | 89.1 | 10.4 | 1 |  |
| FC(F)(F)c1cccc(-n2cc(CN(CCCNC3CCCCC3)Cc3cccnc3)c3ccccc32)c1 [Compound 10] | 23 | 121 | 96.4 | 5.5 | 91.1 | > 50 | 10.7 |  |
| CN(CCN(Cc1cccnc1)Cc1cn(S(=O)(=O)c2ccccc2)c2ccccc12)C1CCCCC1 [Compound 27] | 13.8 | 121 | 96.3 | 7.8 | 53.9 | > 50 | −12 |  |

From US20230416239A1, “COMPOUNDS AND METHODS FOR TREATING A CYTOKINE-MEDIATED DISEASE” (CONSERVATOIRE NATIONAL DES ARTS ET MÉTIERS, priority 2020, published 2023)
